Laboratory results: patent US8921376B2, “Pyrrolopyridines useful as inhibitors of protein kinase” (Vertex Pharmaceuticals Incorporated, priority 2005, dated 2014)

Experiments:
Assay type in all cases: biochemical
JAK3 = biological target: T1, JAK3 (Homo sapiens, UniProt P52333); assay: JAK3 inhibition assay (33P incorporation into poly(Glu)4Tyr)
T1 sequence (P52333 1-1124): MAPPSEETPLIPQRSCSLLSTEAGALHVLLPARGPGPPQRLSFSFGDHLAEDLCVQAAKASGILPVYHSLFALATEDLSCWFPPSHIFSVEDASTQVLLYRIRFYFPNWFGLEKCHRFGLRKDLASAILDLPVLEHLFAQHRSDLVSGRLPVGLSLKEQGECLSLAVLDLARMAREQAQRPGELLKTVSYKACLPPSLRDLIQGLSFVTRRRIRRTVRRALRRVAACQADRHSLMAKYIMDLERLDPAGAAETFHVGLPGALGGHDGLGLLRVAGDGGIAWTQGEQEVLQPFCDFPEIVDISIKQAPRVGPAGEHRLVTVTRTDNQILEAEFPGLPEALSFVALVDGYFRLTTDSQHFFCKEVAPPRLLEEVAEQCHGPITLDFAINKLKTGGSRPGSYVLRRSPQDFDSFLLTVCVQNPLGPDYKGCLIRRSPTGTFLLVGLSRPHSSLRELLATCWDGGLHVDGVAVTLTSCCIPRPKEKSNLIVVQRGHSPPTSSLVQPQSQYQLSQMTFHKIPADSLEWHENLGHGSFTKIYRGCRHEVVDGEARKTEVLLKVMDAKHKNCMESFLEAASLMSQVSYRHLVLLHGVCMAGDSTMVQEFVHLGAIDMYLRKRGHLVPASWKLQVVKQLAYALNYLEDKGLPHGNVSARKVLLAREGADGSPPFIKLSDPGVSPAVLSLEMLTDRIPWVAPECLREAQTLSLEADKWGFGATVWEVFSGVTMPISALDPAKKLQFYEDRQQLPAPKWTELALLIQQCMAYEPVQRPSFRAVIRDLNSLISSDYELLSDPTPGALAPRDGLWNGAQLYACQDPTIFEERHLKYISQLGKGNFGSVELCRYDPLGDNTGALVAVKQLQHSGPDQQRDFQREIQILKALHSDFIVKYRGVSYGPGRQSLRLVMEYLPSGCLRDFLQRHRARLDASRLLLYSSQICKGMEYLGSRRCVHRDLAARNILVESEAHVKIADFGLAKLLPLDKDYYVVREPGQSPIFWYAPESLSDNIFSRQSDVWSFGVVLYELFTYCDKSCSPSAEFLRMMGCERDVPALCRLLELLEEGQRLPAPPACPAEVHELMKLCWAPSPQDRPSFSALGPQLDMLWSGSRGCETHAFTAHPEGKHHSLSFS
Protocol: (§1) Compounds were screened for their ability to inhibit JAK using the assay shown below. Reactions were carried out in a kinase buffer containing 100 mM HEPES (pH 7.4), 1 mM DTT, 10 mM MgCl2, 25 mM NaCl, and 0.01% BSA.
(§2) Substrate concentrations in the assay were 5 μM ATP (200 μCi/μmole ATP) and 1 μM poly(Glu)4Tyr. Reactions were carried out at 25° C. and 1 nM JAK3.
(§3) To each well of a 96 well polycarbonate plate was added 1.5 μl of a candidate JAK3 inhibitor along with 50/1 of kinase buffer containing 2 μM poly(Glu)4Tyr and 10 μM ATP. This was then mixed and 50 μl of kinase buffer containing 2 nM JAK3 enzyme was added to start the reaction. After 20 minutes at room temperature (25 C), the reaction was stopped with 50 μl of 20% trichloroacetic acid (TCA) that also contained 0.4 mM ATP. The entire contents of each well were then transferred to a 96 well glass fiber filter plate using a TomTek Cell Harvester. After washing, 60 μl of scintillation fluid was added and ^33P incorporation detected on a Perkin Elmer TopCount.

JAK2 = JAK2 (Homo sapiens, UniProt O60674); assay: JAK2 inhibition assay (as Example 3 with JAK-2 enzyme)
JAK2, sequence (O60674 whole entry): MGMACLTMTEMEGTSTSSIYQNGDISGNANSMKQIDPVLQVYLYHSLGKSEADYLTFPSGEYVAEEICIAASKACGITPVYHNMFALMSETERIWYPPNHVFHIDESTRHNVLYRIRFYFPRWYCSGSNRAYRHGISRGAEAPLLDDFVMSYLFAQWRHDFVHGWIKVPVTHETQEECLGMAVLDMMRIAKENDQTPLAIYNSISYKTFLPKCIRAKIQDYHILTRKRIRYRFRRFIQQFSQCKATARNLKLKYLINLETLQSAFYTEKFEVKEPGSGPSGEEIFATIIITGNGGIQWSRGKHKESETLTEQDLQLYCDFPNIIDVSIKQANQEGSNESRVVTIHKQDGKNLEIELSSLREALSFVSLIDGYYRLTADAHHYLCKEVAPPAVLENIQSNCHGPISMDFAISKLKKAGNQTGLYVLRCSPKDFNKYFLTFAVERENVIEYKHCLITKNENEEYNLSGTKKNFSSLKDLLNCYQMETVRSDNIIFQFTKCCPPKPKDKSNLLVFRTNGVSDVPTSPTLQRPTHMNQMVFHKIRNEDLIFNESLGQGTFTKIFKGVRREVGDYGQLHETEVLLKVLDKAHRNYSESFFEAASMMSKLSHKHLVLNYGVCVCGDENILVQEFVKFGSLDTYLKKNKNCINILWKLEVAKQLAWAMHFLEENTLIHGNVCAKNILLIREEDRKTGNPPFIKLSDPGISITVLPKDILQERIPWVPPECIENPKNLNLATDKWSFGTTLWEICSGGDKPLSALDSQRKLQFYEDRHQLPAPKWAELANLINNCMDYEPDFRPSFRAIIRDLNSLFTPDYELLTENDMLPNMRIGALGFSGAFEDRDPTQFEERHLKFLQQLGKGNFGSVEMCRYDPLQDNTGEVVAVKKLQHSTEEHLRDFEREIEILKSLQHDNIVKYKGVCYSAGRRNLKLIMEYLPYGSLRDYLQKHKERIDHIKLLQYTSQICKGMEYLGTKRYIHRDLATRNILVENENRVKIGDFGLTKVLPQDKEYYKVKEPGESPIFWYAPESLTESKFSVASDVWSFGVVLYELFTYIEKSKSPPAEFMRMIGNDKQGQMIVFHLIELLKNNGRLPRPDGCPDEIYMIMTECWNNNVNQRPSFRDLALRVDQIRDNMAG
Protocol: as §1, §2, §3
The assays were as described above in Example 3 except that JAK-2 enzyme was used, the final poly(Glu)4Tyr concentration was 15 μM, and final ATP concentration was 12 μM.

ROCK I = ROCK I (Homo sapiens, UniProt Q13464); assay: ROCK-I inhibition assay (radioactive enzyme assay, MBP substrate)
ROCK I, sequence (Q13464 whole entry): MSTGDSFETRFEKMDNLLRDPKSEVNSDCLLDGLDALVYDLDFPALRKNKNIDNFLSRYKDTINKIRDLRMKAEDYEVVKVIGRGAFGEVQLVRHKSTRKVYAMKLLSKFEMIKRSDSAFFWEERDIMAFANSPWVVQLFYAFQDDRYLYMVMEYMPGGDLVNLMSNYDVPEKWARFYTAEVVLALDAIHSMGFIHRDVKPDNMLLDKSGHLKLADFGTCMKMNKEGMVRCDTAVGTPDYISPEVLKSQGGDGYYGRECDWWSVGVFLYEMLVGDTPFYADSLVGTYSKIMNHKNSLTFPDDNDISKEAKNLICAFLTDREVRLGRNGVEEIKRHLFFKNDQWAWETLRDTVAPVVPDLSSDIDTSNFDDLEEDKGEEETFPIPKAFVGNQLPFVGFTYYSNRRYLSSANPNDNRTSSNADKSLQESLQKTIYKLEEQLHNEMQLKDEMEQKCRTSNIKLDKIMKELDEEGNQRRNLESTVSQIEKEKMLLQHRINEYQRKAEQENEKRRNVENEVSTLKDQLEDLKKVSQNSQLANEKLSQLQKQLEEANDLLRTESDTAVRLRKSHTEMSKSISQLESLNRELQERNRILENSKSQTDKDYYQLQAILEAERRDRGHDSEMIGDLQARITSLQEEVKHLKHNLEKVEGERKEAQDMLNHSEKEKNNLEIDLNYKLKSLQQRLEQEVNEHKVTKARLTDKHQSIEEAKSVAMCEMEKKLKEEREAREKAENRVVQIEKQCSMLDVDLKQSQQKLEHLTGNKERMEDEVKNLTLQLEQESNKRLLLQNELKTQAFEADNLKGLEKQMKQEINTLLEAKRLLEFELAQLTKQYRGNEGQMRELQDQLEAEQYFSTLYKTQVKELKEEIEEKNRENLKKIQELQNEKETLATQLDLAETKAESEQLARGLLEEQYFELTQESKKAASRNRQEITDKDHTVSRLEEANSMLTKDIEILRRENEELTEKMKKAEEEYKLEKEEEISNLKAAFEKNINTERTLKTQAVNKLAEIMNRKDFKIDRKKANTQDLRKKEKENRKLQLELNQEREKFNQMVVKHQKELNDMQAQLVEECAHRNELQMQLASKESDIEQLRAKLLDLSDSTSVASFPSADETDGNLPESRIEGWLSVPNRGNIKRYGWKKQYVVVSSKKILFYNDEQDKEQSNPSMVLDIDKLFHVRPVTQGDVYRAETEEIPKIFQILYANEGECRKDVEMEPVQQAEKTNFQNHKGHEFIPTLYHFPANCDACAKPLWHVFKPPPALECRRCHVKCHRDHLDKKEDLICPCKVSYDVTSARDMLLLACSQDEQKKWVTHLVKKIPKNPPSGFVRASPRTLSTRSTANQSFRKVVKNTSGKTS
Protocol: Compounds were screened for their ability to inhibit ROCK using a standard radioactive enzyme assay. Assays were carried out in a solution containing 100 mM HEPES (pH 7.5), 10 mM MgCl2, 25 mM NaCl, 2 mM DTT, and 1.5% DMSO. Final substrate concentrations in the assay were 13 μM [γ-^33P] ATP (25 mCi ^33P ATP/mmol ATP, Perkin Elmer, Cambridge, Mass./Sigma Chemicals, St Louis, Mo.) and 27 μM Myelin Basic Protein (MBP). Final enzyme concentration in the assay was 5 nM ROCK. Assays were carried out at room temperature. 1.5 μl of DMSO stock containing serial dilutions of the compound of the present invention (concentrations ranging from 10 μM to 2.6 nM) was placed in a 96 well plate. 50 μl of Solution 1 (100 mM HEPES (pH 7.5), 10 mM MgCl2, […]) was added to the plate. The reaction was initiated by addition of 50 μl of Solution 2 (100 mM HEPES (pH 7.5), 10 mM MgCl2, 4 mM DTT, […] and 10 nM ROCK). After 2 hours the reaction was quenched with 50 μL of 30% trichloroacetic acid (TCA, Fisher) containing 9 mM ATP. Transfer of 140 μL of the quenched reaction to a glass fiber filter plate (Corning, Cat. No. 3511) was followed by washing 3 times with 5% TCA. 50 μl of Optima Gold scintillation fluid (Perkin Elmer) was added and the plates were counted on a Top Count (Perkin Elmer). After removing mean background values for all of the data points the data was fit using Prism software to obtain a Ki(app).

[1] = Table 6, enzyme inhibition data (Ki)
[2] = enzyme inhibition, Ki(app), Table 5

| Ki (JAK3; [1]) | Ki (JAK2; [1]) | Ki (ROCK I; [1]) | Ki (JAK3; enzyme inhibition, Table 5) | Ki (JAK2; enzyme inhibition, Table 5) | Ki (ROCK I; [2]) | SMILES |
| --- | --- | --- | --- | --- | --- | --- |
| < 0.5 µM | < 0.5 µM | < 0.5 µM | – | – | – | CCCN(CCC#N)C(=O)c1cc(-c2c(F)cnc3[nH]ccc23)c[nH]1 [compound 396] |
| < 0.5 µM | < 0.5 µM | 0.5 to 5 µM | – | – | – | CCCCN(CCC#N)C(=O)c1cc(-c2c(Cl)cnc3[nH]ccc23)c[nH]1 [compound 336] |
| < 0.5 µM | < 0.5 µM | 0.5 to 5 µM | – | – | – | CCCS(=O)(=O)N1CCCC(Nc2c(Cl)cnc3[nH]ccc23)C1 (stereo not drawn) [compound 177] |
| > 5 µM | > 5 µM | > 4 µM | – | – | – | c1cnc2c(-c3ccnc4[nH]ccc34)cccc2c1 [compound 227] |
| – | – | – | < 0.5 µM | < 0.5 µM | < 0.5 µM | CN(C)c1cccc(-c2ccnc3[nH]ccc23)c1 [compound 31, Dimethyl-[3-(1H-pyrrolo[2,3-b]pyridin-4-yl)-phenyl]-amine] |
| < 0.5 µM | < 0.5 µM | 0.5 to 5 µM | – | – | – | O=C(CC(F)(F)F)N1CCCC(Nc2c(Cl)cnc3[nH]ccc23)C1 (stereo not drawn) [compound 186] |
| – | – | – | < 0.5 µM | < 0.5 µM | 0.5 to 5 µM | Clc1cnc2[nH]ccc2c1C1=CCCCC1 [compound 29, 5-Chloro-4-cyclohexenyl-1H-pyrrolo[2,3b]pyridine] |
| – | – | – | < 0.5 µM | 0.5 to 5 µM | 0.5 to 5 µM | CC1CCCC=C1c1c(Cl)cnc2[nH]ccc12 (stereo not drawn) [compound 68] |
| – | – | – | 0.5 to 5 µM | 0.5 to 5 µM | 0.5 to 5 µM | OC1CCN(c2cccc(-c3ccnc4[nH]ccc34)n2)C1 (stereo not drawn) [compound 51] |
| < 0.5 µM | < 0.5 µM | < 0.5 µM | – | – | – | CCCN(CCC)C(=O)c1cc(-c2ccnc3[nH]ccc23)c[nH]1 [compound 309] |
| < 0.5 µM | < 0.5 µM | < 0.5 µM | – | – | – | CCCN(CC(F)(F)F)C(=O)c1cc(-c2c(F)cnc3[nH]ccc23)c[nH]1 [compound 388] |
| < 0.5 µM | < 0.5 µM | < 0.5 µM | – | – | – | N#CCCN(Cc1cccnc1)C(=O)c1ccc(-c2ccnc3[nH]ccc23)s1 [compound 316] |
| > 5 µM | > 5 µM | > 4 µM | – | – | – | COc1cccc(Cl)c1-c1ccnc2[nH]ccc12 [compound 245] |
| 0.5 to 5 µM | 0.5 to 5 µM | > 4 µM | – | – | – | O=C(CNc1nc(-c2ccnc3[nH]ccc23)nc2ccccc12)NCC(F)(F)F [compound 196] |
| – | – | – | 0.5 to 5 µM | 0.5 to 5 µM | < 0.5 µM | CNCc1cccc(-c2ccnc3[nH]ccc23)c1 [compound 84, Methyl-[3-(1H-pyrrolo[2,3-b]pyridin-4-yl)-benzyl]-amine] |
| < 0.5 µM | < 0.5 µM | > 4 µM | – | – | – | CC(C)(C)OC(=O)N1CCC[C@@H](Nc2c(Cl)cnc3[nH]ccc23)C1 [compound 164] |
| – | – | – | > 5 µM | < 0.5 µM | 0.5 to 5 µM | O=C(Cc1ccccc1)Nc1cccc(-c2ccnc3[nH]ccc23)n1 [compound 99, N-(6-(1H-pyrrolo[2,3-b]pyridine-4-yl)pyridin-2-yl)phenylacetamide] |
| < 0.5 µM | < 0.5 µM | 0.5 to 5 µM | – | – | – | CN(Cc1cccnc1)C(=O)c1cc(-c2c(Cl)cnc3[nH]ccc23)c[nH]1 [compound 354] |

| Ki (JAK3; [1]) | Ki (JAK2; [1]) | Ki (ROCK I; [1]) | Ki (JAK3; enzyme inhibition, Table 5) | Ki (JAK2; enzyme inhibition, Table 5) | Ki (ROCK I; [2]) | SMILES |
| --- | --- | --- | --- | --- | --- | --- |
| – | – | – | 0.5 to 5 µM | 0.5 to 5 µM | 0.5 to 5 µM | Clc1ccccc1CCNc1cccc(-c2ccnc3[nH]ccc23)n1 [compound 34, N-(2-Chlorophenethyl)-6-(1H-pyrrolo[2,3-b]pyridin-4-yl)pyridin-2-amine] |
| < 0.5 µM | < 0.5 µM | > 4 µM | – | – | – | Clc1ccc(-c2c(Cl)cnc3[nH]ccc23)s1 [compound 141] |
| < 0.5 µM | < 0.5 µM | > 4 µM | – | – | – | CCCS(=O)(=O)N1CC[C@H](Nc2c(Cl)cnc3[nH]ccc23)C1 [compound 178] |
| – | – | – | < 0.5 µM | 0.5 to 5 µM | < 0.5 µM | c1ccc(COc2cccc(-c3ccnc4[nH]ccc34)c2)cc1 [compound 42, 4-(3-Benzyloxy-phenyl)-1H-pyrrolo[2,3-b]pyridine] |
| – | – | – | < 0.5 µM | < 0.5 µM | < 0.5 µM | N#CC1(c2cccc(-c3ccnc4[nH]ccc34)n2)CCCC1 [compound 102, 1-(6-(1H-pyrrolo[2,3-b]pyridin-4-yl)pyridin-2-yl)cyclopentanecarbonitrile] |
| < 0.5 µM | < 0.5 µM | < 0.5 µM | – | – | – | CN(Cc1cccnc1)C(=O)c1cc(-c2ccnc3[nH]ccc23)c[nH]1 [compound 370] |
| < 0.5 µM | < 0.5 µM | > 4 µM | – | – | – | CC(C)CN(CC(C)C)C(=O)c1cc(-c2c(Cl)cnc3[nH]ccc23)c[nH]1 [compound 342] |
| < 0.5 µM | < 0.5 µM | 0.5 to 5 µM | – | – | – | CCCNC(=O)c1cc(-c2c(Cl)cnc3[nH]ccc23)c[nH]1 [compound 279] |
| < 0.5 µM | < 0.5 µM | < 0.5 µM | – | – | – | Clc1cnc2[nH]ccc2c1-c1cccs1 [compound 135] |
| < 0.5 µM | < 0.5 µM | < 0.5 µM | – | – | – | CCOc1cccc(-c2ccnc3[nH]ccc23)c1 [compound 249] |
| – | – | – | 0.5 to 5 µM | 0.5 to 5 µM | 0.5 to 5 µM | CC(C)CNc1cccc(-c2ccnc3[nH]ccc23)n1 [compound 20] |
| – | – | – | 0.5 to 5 µM | 0.5 to 5 µM | 0.5 to 5 µM | CC(=O)N1CCN(c2cccc(-c3ccnc4[nH]ccc34)n2)CC1 [compound 26, 1-(4-(6-(1H-pyrrolo[2,3-b]pyridin-4-yl)pyridin-2-yl)piperazin-1-yl)ethanone] |
| 0.5 to 5 µM | > 5 µM | 0.5 to 5 µM | – | – | – | CCCNC(=O)c1cccc(-c2ccnc3[nH]ccc23)c1 [compound 256] |
| < 0.5 µM | < 0.5 µM | 0.5 to 5 µM | – | – | – | Clc1ccccc1Nc1c(Cl)cnc2[nH]ccc12 [compound 158] |
| 0.5 to 5 µM | 0.5 to 5 µM | > 4 µM | – | – | – | CNc1ccccc1-c1ccnc2[nH]ccc12 [compound 381] |
| < 0.5 µM | < 0.5 µM | 0.5 to 5 µM | – | – | – | CC1CC(Nc2c(Cl)cnc3[nH]ccc23)CC(C)(C)C1 (stereo not drawn) [compound 162] |
| – | – | – | < 0.5 µM | < 0.5 µM | 0.5 to 5 µM | CC1CC=C(c2c(Cl)cnc3[nH]ccc23)C1C (stereo not drawn) [compound 90] |
| > 5 µM | > 5 µM | > 4 µM | – | – | – | c1ccc2c(c1)Oc1c(cccc1-c1ccnc3[nH]ccc13)S2 [compound 246] |
